{
  "source": "patent US20260022142A1",
  "about": "“MACROCYCLIC IMMUNOMODULATORS” (Bristol-Myers Squibb Company, priority 2022, published 2026)",
  "note": "pIC50: −log10 of the molar value. Numbered stars: 1 amine (or outer) side, 2 acyl side, 3 side chain; on linkers, the order of the positions; unused ones are H or OH. Bridge positions count the residues as written; N and C are the ends. Square brackets hold non-standard residues; d marks the D form. Peptide text beside a SMILES is read from it. * marks the point of attachment. ξ: configuration not given here. X9 = O=C([C@H](Cc1cc(F)c(F)cc1F)N[*:1])[*:2]; Bip = N[C@@H](Cc1ccc(-c2ccccc2)cc1)C(=O)O; Pip(4-aza) = O=C(O)[C@@H]1CNCCN1; 4Pal = N[C@@H](Cc1ccncc1)C(=O)O; X1 = O=C(CN1CCN([*:1])CC1)[*:2]; Cha = N[C@@H](CC1CCCCC1)C(=O)O; Thr(3ξ) = CC(O)[C@H](N)C(=O)O; 4Abz = Nc1ccc(C(=O)O)cc1; Carboxymethyl = O=C(O)C*; Orn = NCCC[C@H](N)C(=O)O; Pra = C#CC[C@H](N)C(=O)O; Aun = NCCCCCCCCCCC(=O)O; Dab = NCC[C@H](N)C(=O)O; Dap = NC[C@H](N)C(=O)O; AEEA = NCCOCCOCC(=O)O",
  "data": [
    {"target": "T1, PD-1/PD-L1 interaction (PE-labeled human PD-L1-Ig binding to Jurkat cell line over-expressing human PD-1) (Homo sapiens, UniProt Q15116)", "T1 construct": "expressed in transfected cells; host or cells: Jurkat", "T1 sequence (Q15116 25-288)": "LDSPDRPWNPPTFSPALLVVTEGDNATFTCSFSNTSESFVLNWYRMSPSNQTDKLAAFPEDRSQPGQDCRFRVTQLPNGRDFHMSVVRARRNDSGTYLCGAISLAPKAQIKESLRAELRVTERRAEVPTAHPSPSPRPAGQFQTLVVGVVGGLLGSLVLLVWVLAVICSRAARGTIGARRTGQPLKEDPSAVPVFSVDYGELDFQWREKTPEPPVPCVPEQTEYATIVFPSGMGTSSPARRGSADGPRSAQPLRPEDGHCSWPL", "test": "Jurkat-PD-1 Cell Binding High-Content Screening Assay (CBA)", "format": "cell-based", "conditions": "Jurkat cell line over-expressing human PD-1; PE-labeled PD-L1-Ig 20 nM final; read-out: Jurkat hPD1-PDL1 IC50", "summary_of_the_method": "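Read-out is high-content imaging of cell-bound phycoerythrin-tagged PD-L1-Ig on fixed, Hoechst-counterstained Jurkat cells that over-express human PD-1. Compound exposure lasts 2 h at 37° C before the labeled ligand (20 nM final) is added for a further hour.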", "values": [
      {"smiles": "C#CC[C@H](NC(=O)COCCOCCNC(=O)[C@@H]1CSCC(=O)N[C@@H](Cc2ccncc2)C(=O)N[C@@H](Cc2ccc(OCC(=O)O)cc2)C(=O)N[C@@H](CC(=O)O)C(=O)N[C@@H](Cc2c[nH]c3ccccc23)C(=O)N[C@@H](C(C)C)C(=O)N[C@@H](Cc2ccc(-c3ccccc3)cc2)C(=O)N[C@@H]([C@@H](C)CC)C(=O)N[C@@H](CCCN)C(=O)N[C@H](CC(C)C)C(=O)N[C@@H](CCN)C(=O)N[C@@H](CC(C)C)C(=O)N[C@@H](C(C)C)C(=O)N[C@@H]([C@@H](C)O)C(=O)N1)C(=O)N[C@@H](CCN)C(=O)NCCCCCCCCCCC(=O)O", "note": "[Compound 1212] ({CH2CO}-[4Pal]Y(Carboxymethyl)DWV[Bip]I[Orn][dL][Dab]LVTC[AEEA][Pra][Dab][Aun]-OH; thioether N-14)", "pIC50": 7.48},
      {"smiles": "C#CC[C@H](NC(=O)COCCOCCNC(=O)[C@@H]1CSCC(=O)N[C@@H](Cc2ccncc2)C(=O)N[C@@H](Cc2ccc(OCC(=O)O)cc2)C(=O)N[C@@H](CC(=O)O)C(=O)N[C@@H](Cc2c[nH]c3ccccc23)C(=O)N[C@@H](C(C)C)C(=O)N[C@@H](Cc2ccc(-c3ccccc3)cc2)C(=O)N[C@@H]([C@@H](C)CC)C(=O)N[C@@H](CCCN)C(=O)N[C@H](CC(C)C)C(=O)N[C@@H](CCN)C(=O)N[C@@H](CC(C)C)C(=O)N[C@@H](C(C)C)C(=O)N[C@@H]([C@@H](C)O)C(=O)N1)C(=O)N[C@@H](CCCN)C(=O)NCCCCCCCCCCC(=O)O", "note": "[Compound 1213] ({CH2CO}-[4Pal]Y(Carboxymethyl)DWV[Bip]I[Orn][dL][Dab]LVTC[AEEA][Pra][Orn][Aun]-OH; thioether N-14)", "pIC50": 7.48},
      {"smiles": "C#CC[C@H](NC(=O)COCCOCCNC(=O)[C@@H]1CSCC(=O)N[C@@H](Cc2ccncc2)C(=O)N[C@@H](Cc2ccc(OCC(=O)O)cc2)C(=O)N[C@@H](CC(=O)O)C(=O)N[C@@H](Cc2c[nH]c3ccccc23)C(=O)N[C@@H](C(C)C)C(=O)N[C@@H](Cc2ccc(-c3ccccc3)cc2)C(=O)N[C@@H]([C@@H](C)CC)C(=O)N[C@@H](CCCN)C(=O)N[C@H](CC(C)C)C(=O)N[C@@H](CCN)C(=O)N[C@@H](CC(C)C)C(=O)N[C@@H](C(C)C)C(=O)N[C@@H]([C@@H](C)O)C(=O)N1)C(=O)N[C@@H](CCCCN)C(=O)NCCCCCCCCCCC(=O)O", "note": "[Compound 1214] ({CH2CO}-[4Pal]Y(Carboxymethyl)DWV[Bip]I[Orn][dL][Dab]LVTC[AEEA][Pra]K[Aun]-OH; thioether N-14)", "pIC50": 7.86},
      {"smiles": "C#CC[C@H](NC(=O)COCCOCCNC(=O)[C@@H]1CSCC(=O)N[C@@H](Cc2ccncc2)C(=O)N[C@@H](Cc2ccc(OCC(=O)O)cc2)C(=O)N[C@@H](CC(=O)O)C(=O)N[C@@H](Cc2c[nH]c3ccccc23)C(=O)N[C@@H](C(C)C)C(=O)N[C@@H](Cc2ccc(-c3ccccc3)cc2)C(=O)N[C@@H]([C@@H](C)CC)C(=O)N[C@@H](CCCN)C(=O)N[C@H](CC(C)C)C(=O)N[C@@H](CCN)C(=O)N[C@@H](CC(C)C)C(=O)N[C@@H](C(C)C)C(=O)N[C@@H]([C@@H](C)O)C(=O)N1)C(=O)N[C@@H](CCCNC(=N)N)C(=O)NCCCCCCCCCCC(=O)O", "note": "[Compound 1215] ({CH2CO}-[4Pal]Y(Carboxymethyl)DWV[Bip]I[Orn][dL][Dab]LVTC[AEEA][Pra]R[Aun]-OH; thioether N-14)", "pIC50": 7.86},
      {"smiles": "C#CC[C@H](NC(=O)COCCOCCNC(=O)[C@@H]1CSCC(=O)N[C@@H](Cc2ccncc2)C(=O)N[C@@H](Cc2ccc(OCC(=O)O)cc2)C(=O)N[C@@H](CC(=O)O)C(=O)N[C@@H](Cc2c[nH]c3ccccc23)C(=O)N[C@@H](C(C)C)C(=O)N[C@@H](Cc2ccc(-c3ccccc3)cc2)C(=O)N[C@@H]([C@@H](C)CC)C(=O)N[C@@H](CCCN)C(=O)N[C@H](CC(C)C)C(=O)N[C@@H](CCN)C(=O)N[C@@H](CC(C)C)C(=O)N[C@@H](C(C)C)C(=O)N[C@@H]([C@@H](C)O)C(=O)N1)C(=O)N[C@@H](Cc1cnc[nH]1)C(=O)NCCCCCCCCCCC(=O)O", "note": "[Compound 1216] ({CH2CO}-[4Pal]Y(Carboxymethyl)DWV[Bip]I[Orn][dL][Dab]LVTC[AEEA][Pra]H[Aun]-OH; thioether N-14)", "pIC50": 7.78},
      {"smiles": "CC(C)C[C@@H]1NC(=O)[C@H](Cc2c[nH]c3ccccc23)NC(=O)[C@H](CC(=O)O)NC(=O)[C@H](Cc2ccncc2)NC(=O)[C@H](Cc2ccc(OCC(=O)O)cc2)NC(=O)CSC[C@@H](C(=O)N2CCNC[C@H]2C(=O)NCCCCCCCCCCC(=O)O)NC(=O)[C@H](C(C)O)NC(=O)[C@H](C(C)C)NC(=O)[C@H](CC2CCCCC2)NC(=O)[C@H](CCN)NC(=O)[C@@H](CC(C)C)NC(=O)[C@H](CCCN)NC(=O)[C@H](C(C)C)NC(=O)[C@H](Cc2ccc(-c3ccccc3)cc2)NC1=O", "note": "(stereo partly drawn) [Compound 1223] ({CH2CO}-Y(Carboxymethyl)[4Pal]DWL[Bip]V[Orn][dL][Dab][Cha]V[Thr(3ξ)]C[Pip(4-aza)][Aun]-OH; thioether N-14)", "pIC50": 6.87},
      {"smiles": "CC(C)C[C@H]1NC(=O)[C@H](CCCN)NC(=O)[C@H](Cc2ccc(O)cc2)NC(=O)[C@H](Cc2ccc(-c3ccccc3)cc2)NC(=O)[C@H](Cc2ccc(OCC(=O)O)cc2)NC(=O)[C@H](Cc2cc(F)c(F)cc2F)NC(=O)[C@H](CC(=O)O)NC(=O)[C@H](Cc2ccc(OCC(=O)O)cc2)NC(=O)[C@H](CN)NC(=O)CSC[C@@H](C(=O)N[C@@H](CCN)C(=O)NCCOCCOCC(=O)NCCCCCCCCCCC(=O)O)NC(=O)[C@H](CCCN)NC(=O)[C@H](C(C)C)NC(=O)[C@H](CC2CCCCC2)NC(=O)[C@H](CCN)NC1=O", "note": "[Compound 1224] ({CH2CO}-[Dap]Y(Carboxymethyl)D[X9]Y(Carboxymethyl)[Bip]Y[Orn][dL][Dab][Cha]V[Orn]C[Dab][AEEA][Aun]-OH; thioether N-14)", "pIC50": 6.85},
      {"smiles": "CC(C)C[C@@H]1NC(=O)[C@H](Cc2c[nH]c3ccccc23)NC(=O)[C@H](CC(=O)O)NC(=O)[C@H](Cc2ccncc2)NC(=O)[C@H](Cc2ccc(OCC(=O)O)cc2)NC(=O)CSC[C@@H](C(=O)N2CCN(CC(=O)NCCCCCCCCCCC(=O)O)CC2)NC(=O)[C@H](C(C)O)NC(=O)[C@H](C(C)C)NC(=O)[C@H](CC2CCCCC2)NC(=O)[C@H](CCN)NC(=O)[C@@H](CC(C)C)NC(=O)[C@H](CCCN)NC(=O)[C@H](C(C)C)NC(=O)[C@H](Cc2ccc(-c3ccccc3)cc2)NC1=O", "note": "(stereo partly drawn) [Compound 1225] ({CH2CO}-Y(Carboxymethyl)[4Pal]DWL[Bip]V[Orn][dL][Dab][Cha]V[Thr(3ξ)]C[X1][Aun]-OH; thioether N-14)", "pIC50": 6.77},
      {"smiles": "CC(C)C[C@@H]1NC(=O)[C@H](Cc2c[nH]c3ccccc23)NC(=O)[C@H](CC(=O)O)NC(=O)[C@H](Cc2ccncc2)NC(=O)[C@H](Cc2ccc(OCC(=O)O)cc2)NC(=O)CSC[C@@H](C(=O)Nc2ccc(C(=O)NCCCCCCCCCCC(=O)O)cc2)NC(=O)[C@H](CCCN)NC(=O)[C@H](C(C)C)NC(=O)[C@H](CC2CCCCC2)NC(=O)[C@H](CCN)NC(=O)[C@@H](CC(C)C)NC(=O)[C@H](CCCN)NC(=O)[C@H](C(C)C)NC(=O)[C@H](Cc2ccc(-c3ccccc3)cc2)NC1=O", "note": "[Compound 1226] ({CH2CO}-Y(Carboxymethyl)[4Pal]DWL[Bip]V[Orn][dL][Dab][Cha]V[Orn]C[4Abz][Aun]-OH; thioether N-14)", "pIC50": 6.56}
    ]}
  ]
}
